Measured values as given in patent EP1282414B1, “FELBAMATE DERIVED COMPOUNDS FOR TREATING NEUROPATHIC PAIN” (University of Virginia Patent Foundation, priority 2000, dated 2001).
Marks after values point to notes of the source that are not given here.

Columns and labels:
[1] = tested on: MES-induced seizure spread; test: Maximal Electroshock Seizure (MES) test, mice i.p.; type: in vivo; conditions: for MES, number of animals protected / total number of animals tested: mice i.p.
Text: (§1) The fluoro derivatives synthesized were submitted to the National Institute of Neurological Disorders and Stroke (NINDS) for evaluation in a standard panel of assays. Two convulsant tests (MES and scMET), and a toxicity screen (rotorod in mice, positional sense and gait in rats) were employed for evaluating the compounds activity as neuroprotecting agents. These testing procedures are described in detail in Molecular and Cellular Targets for Anti-epileptic Drugs, eds. G. Avanzini, G. Regesta, P. Tanganelli, M. Avoli, 1997, John Libbey & Company Ltd, pp 191-198. The felbamate derivatives were evaluated for anticonvulsant activity following intraperitoneal (i.p.) administration in mice and oral administration in rats.
The MES test is a model for generalized tonic-clonic seizures and is used to identify compounds which prevent seizure spread. The behavioral and electrographic seizures generated in this model are consistent with the human disorder. In the MES test, an electrical stimulus of 0.2 s in duration (50 mA in mice and 150 mA in rat at 60Hz) was delivered via corneal electrodes primed with an electrolyte solution containing an anesthetic agent. […] Rats were tested at time intervals between 0.25 and 4 hours following a standard oral dose of 30 mg/kg. Abolition of the hindlimb tonic extensor component indicates the test compound's ability to inhibit MES-induced seizure spread.
(§2) For the MES and scMET tests the data is presented in the form of the number of animals protected by the administered compound / total number of animals tested. […] Qualitative data was obtained for fluoro felbamate 12 (Tables 1 and 2A), fluoro monocarbamate felbamate 13 (Tables 1 and 2B), and fluorodioxo 16 (Tables 1 and 2C) and for cyclic felbamate 21 (Tables 5 and 6B) and cyclic monocarbamate 22 (Tables 5 and 6A). More extensive quantitative data was also obtained for fluoro felbamate 12 in mice (Table 3) and rats (Table 4).

[2] = tested on: pentylenetetrazol; test: Subcutaneous Metrazol seizure test (scMET), mice i.p.; type: in vivo, Carworth Farms No. 1 mice; conditions: for ScMET, number of animals protected / total number of animals tested: mice i.p.
Text: as §1
This is a model that primarily identifies compounds that raise seizure threshold. With some minor exceptions, the pharmacological profile of the scMET seizure model is consistent with the human condition. The scMET test utilizes a dose of pentylenetetrazol (85 mg/kg in Carworth Farms No. 1 mice and 70 mg/kg in Sprague-Dawley rats) that induces clonic seizures lasting for a period of at least five seconds in 97 % (CD97) of animals tested. At the anticipated time of testing the convulsant is administered subcutaneously. The test compound is administered intraperitoneally in mice and orally in rats. Animals are observed over a 30 minute period. Absence of clonic spasms in the observed time period indicates a compound's ability to abolish the effect of pentylenetetrazol on seizure threshold.
as §2

[3] = tested on: pentylenetetrazol; test: Subcutaneous Metrazol seizure test (scMET), rats p.o.; type: in vivo, Sprague-Dawley rats; conditions: po, rat
Text: as §1
This is a model that primarily identifies compounds that raise seizure threshold. With some minor exceptions, the pharmacological profile of the scMET seizure model is consistent with the human condition. […]
For the MES and scMET tests the data is presented in the form of the number of animals protected by the administered compound / total number of animals tested. […] More extensive quantitative data was also obtained for fluoro felbamate 12 in mice (Table 3) and rats (Table 4).

[4] = tested on: focal seizures; test: Hippocampal kindling model (kindled rats), i.p.; type: in vivo, adult male Sprague-Dawley rats; set-up: key to Seizure Score ± S.E.M.: Racine seizure score (stage 5 = generalized seizure); conditions: for Number Protected / Number Tested / Afterdischarge Duration (sec) ± S.E.M / Seizure Score ± S.E.M.: i.p.
Text: The hippocampal kindling model can be used to evaluate a compound's ability to affect both the expression and acquisition of focal seizures. The hippocampal kindling paradigm as described by Lothman and Williamson (Lothman, 1994) allows the temporal effects of a drug to be evaluated in a single animal. This procedure requires the surgical placement ofbipolar electrodes in the ventral hippocampus of adult male Sprague-Dawley rats. Stage five behavioral seizures are produced by using a stimulus consisting of a 50 Hz, 10 s train of 1 ms biphasic 200 uA pulses delivered every 30 min for 6 hours (12 stimuli per day) on alternating days for a total of 60 stimulations (five stimulus days). Prior to evaluating a candidate's anticonvulsant activity, a drug free control period consisting of supramaximal stimulations are recorded to verify the stability of a stage five generalized seizure.
A single dose of the candidate compound is then administered intraperitoneally (i.p.), 15 min following the last control stimulation. The anticonvulsant activity of the drug is assessed every 30 min for three to four hours starting 15 min after administering the test material. After each stimulation, individual Racine seizure scores and afterdischarge durations are recorded. Rats are used again in drug trials after four to five drug- and stimulus-free days.

[5] = Dose Responses, 25 mg/kg (time not given)
[6] = Dose Responses, 50 mg/kg (time not given)
[7] = Dose Responses, 100 mg/kg (time not given)

NC(=O)OCC(F)(COC(N)=O)c1ccccc1 [fluoro felbamate, 2-Fluoro-2-phenyl-1,3-propanediol dicarbamate]
ED50 ([1]; Mus musculus, ip, read-out: MES ED50, mouse, I.P.): ~20 mg/kg
MES, number of animals protected / total number of animals tested ([1]; 3 mg/kg, 0.5h): 0/4
MES, number of animals protected / total number of animals tested ([1]; 3 mg/kg, 4.0h): 0/1
MES, number of animals protected / total number of animals tested ([1]; 10 mg/kg, 0.5h): 0/4
MES, number of animals protected / total number of animals tested ([1]; 10 mg/kg, 4.0h): 1/4
MES, number of animals protected / total number of animals tested ([1]; 30 mg/kg, 0.5h): 1/1
MES, number of animals protected / total number of animals tested ([1]; 30 mg/kg, 4.0h): 1/1
MES, number of animals protected / total number of animals tested ([1]; 100 mg/kg, 0.5h): 3/3
MES, number of animals protected / total number of animals tested ([1]; 100 mg/kg, 4.0h): 3/3
MES, number of animals protected / total number of animals tested ([1]; 300 mg/kg, 0.5h): 1/1
MES, number of animals protected / total number of animals tested ([1]; 300 mg/kg, 4.0h): 1/1
MES ED50 ([1]; mouse, I.P.): 19.96 mg/kg
ED50 ([2]; Mus musculus, ip, read-out: ScMET ED50): > 160 mg/kg
ScMET, number of animals protected / total number of animals tested ([2]; 30 mg/kg, 0.5h): 0/1
ScMET, number of animals protected / total number of animals tested ([2]; 30 mg/kg, 4.0h): 0/1
ScMET, number of animals protected / total number of animals tested ([2]; 100 mg/kg, 0.5h): 0/1
ScMET, number of animals protected / total number of animals tested ([2]; 100 mg/kg, 4.0h): 0/1
ScMET, number of animals protected / total number of animals tested ([2]; 300 mg/kg, 0.5h): 0/1
ScMET, number of animals protected / total number of animals tested ([2]; 300 mg/kg, 4.0h): 0/1
ED50 [3]: > 250 mg/kg
change in afterdischarge duration (in words) ([4]; 100mg/kg): corresponding decrease
change in seizure score (in words) ([4]; 100mg/kg): significant drop
Number Protected / Number Tested ([4]; Dose Responses, 25 mg/kg): 0/7
Afterdischarge Duration (sec) ± S.E.M [4, 5]: 71.43 ± 5.50 s
Seizure Score ± S.E.M. [4, 5]: 4.57 ± 0.20
Number Protected / Number Tested ([4]; Dose Responses, 50 mg/kg): 3/7
Afterdischarge Duration (sec) ± S.E.M [4, 6]: 68.57 ± 20.14 s
Seizure Score ± S.E.M. [4, 6]: 2.86 ± 0.83
Number Protected / Number Tested ([4]; Dose Responses, 100 mg/kg): 7/8^a
Afterdischarge Duration (sec) ± S.E.M [4, 7]: 29.00 ± 10.86 s
Seizure Score ± S.E.M. [4, 7]: 1.50 ± 0.57
Afterdischarge Duration (sec) ± S.E.M ([4]; 25 mg/kg, 15 min): 77.29 ± 4.91 s
Seizure Score ± S.E.M. ([4]; 25 mg/kg, 15 min): 4.86 ± 0.14
Afterdischarge Duration (sec) ± S.E.M ([4]; 25 mg/kg, 45 min): 71.43 ± 5.50 s
Seizure Score ± S.E.M. ([4]; 25 mg/kg, 45 min): 4.57 ± 0.20
Afterdischarge Duration (sec) ± S.E.M ([4]; 25 mg/kg, 75 min): 64.43 ± 11.19 s
Seizure Score ± S.E.M. ([4]; 25 mg/kg, 75 min): 4.00 ± 0.69
Afterdischarge Duration (sec) ± S.E.M ([4]; 25 mg/kg, 105 min): 70.29 ± 4.85 s
Seizure Score ± S.E.M. ([4]; 25 mg/kg, 105 min): 4.57 ± 0.20
Afterdischarge Duration (sec) ± S.E.M ([4]; 25 mg/kg, 135 min): 53.86 ± 9.33 s
Seizure Score ± S.E.M. ([4]; 25 mg/kg, 135 min): 4.43 ± 0.57
Afterdischarge Duration (sec) ± S.E.M ([4]; 25 mg/kg, 165 min): 59.29 ± 3.28 s
Seizure Score ± S.E.M. ([4]; 25 mg/kg, 165 min): 4.71 ± 0.18
Afterdischarge Duration (sec) ± S.E.M ([4]; 25 mg/kg, 195 min): 54.00 ± 9.62 s
Seizure Score ± S.E.M. ([4]; 25 mg/kg, 195 min): 3.86 ± 0.67
Afterdischarge Duration (sec) ± S.E.M ([4]; 25 mg/kg, 225 min): 53.29 ± 9.03 s
Seizure Score ± S.E.M. ([4]; 25 mg/kg, 225 min): 4.00 ± 0.69
Afterdischarge Duration (sec) ± S.E.M ([4]; 25 mg/kg, 255 min): 64.00 ± 3.42 s
Seizure Score ± S.E.M. ([4]; 25 mg/kg, 255 min): 4.86 ± 0.14
Afterdischarge Duration (sec) ± S.E.M ([4]; 50 mg/kg, 15 min): 67.14 ± 12.39 s
Seizure Score ± S.E.M. ([4]; 50 mg/kg, 15 min): 3.86 ± 0.70
Afterdischarge Duration (sec) ± S.E.M ([4]; 50 mg/kg, 45 min): 68.57 ± 20.14 s
Seizure Score ± S.E.M. ([4]; 50 mg/kg, 45 min): 2.86 ± 0.83
Afterdischarge Duration (sec) ± S.E.M ([4]; 50 mg/kg, 75 min): 63.00 ± 17.45 s
Seizure Score ± S.E.M. ([4]; 50 mg/kg, 75 min): 3.14 ± 0.83
Afterdischarge Duration (sec) ± S.E.M ([4]; 50 mg/kg, 105 min): 60.86 ± 14.93 s
Seizure Score ± S.E.M. ([4]; 50 mg/kg, 105 min): 3.43 ± 0.90
Afterdischarge Duration (sec) ± S.E.M ([4]; 50 mg/kg, 135 min): 65.00 ± 13.10 s
Seizure Score ± S.E.M. ([4]; 50 mg/kg, 135 min): 3.71 ± 0.64
Afterdischarge Duration (sec) ± S.E.M ([4]; 50 mg/kg, 165 min): 43.14 ± 14.67 s
Seizure Score ± S.E.M. ([4]; 50 mg/kg, 165 min): 2.71 ± 0.97
Afterdischarge Duration (sec) ± S.E.M ([4]; 50 mg/kg, 195 min): 52.86 ± 14.59 s
Seizure Score ± S.E.M. ([4]; 50 mg/kg, 195 min): 3.14 ± 0.83
Afterdischarge Duration (sec) ± S.E.M ([4]; 50 mg/kg, 225 min): 39.86 ± 10.98 s
Seizure Score ± S.E.M. ([4]; 50 mg/kg, 225 min): 3.00 ± 0.87
Afterdischarge Duration (sec) ± S.E.M ([4]; 50 mg/kg, 255 min): 33.29 ± 11.76 s
Seizure Score ± S.E.M. ([4]; 50 mg/kg, 255 min): 2.57 ± 0.72
Afterdischarge Duration (sec) ± S.E.M ([4]; 100 mg/kg, 15 min): 40.75 ± 15.74 s
Seizure Score ± S.E.M. ([4]; 100 mg/kg, 15 min): 1.75 ± 0.73
Afterdischarge Duration (sec) ± S.E.M ([4]; 100 mg/kg, 45 min): 29.00 ± 10.86 s
Seizure Score ± S.E.M. ([4]; 100 mg/kg, 45 min): 1.50 ± 0.57
Afterdischarge Duration (sec) ± S.E.M ([4]; 100 mg/kg, 75 min): 38.63 ± 12.58 s
Seizure Score ± S.E.M. ([4]; 100 mg/kg, 75 min): 1.88 ± 0.67
Afterdischarge Duration (sec) ± S.E.M ([4]; 100 mg/kg, 105 min): 53.38 ± 12.59 s
Seizure Score ± S.E.M. ([4]; 100 mg/kg, 105 min): 2.38 ± 0.65
Afterdischarge Duration (sec) ± S.E.M ([4]; 100 mg/kg, 135 min): 33.63 ± 12.88 s
Seizure Score ± S.E.M. ([4]; 100 mg/kg, 135 min): 2.00 ± 0.76
Afterdischarge Duration (sec) ± S.E.M ([4]; 100 mg/kg, 165 min): 43.38 ± 12.79 s
Seizure Score ± S.E.M. ([4]; 100 mg/kg, 165 min): 2.75 ± 0.65
Afterdischarge Duration (sec) ± S.E.M ([4]; 100 mg/kg, 195 min): 45.25 ± 13.33 s
Seizure Score ± S.E.M. ([4]; 100 mg/kg, 195 min): 2.25 ± 0.70
Afterdischarge Duration (sec) ± S.E.M ([4]; 100 mg/kg, 225 min): 47.38 ± 14.80 s
Seizure Score ± S.E.M. ([4]; 100 mg/kg, 225 min): 2.50 ± 0.73
Afterdischarge Duration (sec) ± S.E.M ([4]; 100 mg/kg, 255 min): 45.38 ± 13.92 s
Seizure Score ± S.E.M. ([4]; 100 mg/kg, 255 min): 2.50 ± 0.65
